The subject of the experiment is IL-1β production in PMA-differentiated THP-1 cells. Description: IL-1β production in PMA-differentiated THP-1 cells stimulated with gramicidin (hTHP-1 assay, 2% fetal bovine serum; Procedures 1-3). It is filed as cell-based, human. The following applies: read-out: IC50. The gist of the method:
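PMA-primed THP-1 cells (20 ng/ml PMA, 16-18 h) in RPMI with 2% FBS were pre-incubated with compounds for 1 h, from 100 μM downward in 3-fold steps (0.37% DMSO final), then stimulated with 5 μM gramicidin for 2 h. IL-1β in the supernatant was quantified by HTRF.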

[1] abbreviates: Homo sapiens, THP-1, hTHP-1 assay containing 2% fetal bovine serum, Table B2, class symbols.
Where [2] appears, read: hTHP-1 assay containing 2% fetal bovine serum, Table B2, class symbols.
Setting [3] is: Homo sapiens, THP-1, hTHP-1 assay containing 2% fetal bovine serum, Table B2, given as bound.
[4] abbreviates: hTHP-1 assay containing 2% fetal bovine serum, Table B2, given as bound.

Where two headings read alike, the source gives them in different places.

Usually IC50 stands for the concentration at which inhibition is half-maximal. With `NS(=O)(=NC(=O)Nc1c2c(cc3c1CCC3)CCC2)c1ccc(C2CCCN2)cc1` (single isomer, unassigned) [Example 648, (R,R) or (S,R)-N′-((1,2,3,5,6,7-hexahydro-s-indacen-4-yl)carbamoyl)-4-(pyrrolidin-2-yl) benzenesulfonimidamide], the IC50 under setting [1] is 1000 to 5000 nM. As to `NS(=O)(=NC(=O)Nc1c2c(cc3c1CCC3)CCC2)c1ccc(C2CCCN2)cc1` (single isomer, unassigned) [Example 650, (R,S) or (S,S)-N′-((1,2,3,5,6,7-hexahydro-s-indacen-4-yl)carbamoyl)-4-(pyrrolidin-2-yl) benzenesulfonimidamide], the half-maximal inhibitory concentration (IC50) under setting [2] lay in the range of 5000 to 30000 nM. Regarding `CC(C)(O)c1cnc(S(N)(=O)=NC(=O)Nc2c3c(cc4c2C(O)CC4)CCC3)s1` (single isomer, unassigned) [Example 651, (R,S) or (R,R)-N′-((3-hydroxy-1,2,3,5,6,7-hexahydro-s-indacen-4-yl)carbamoyl)-5-(2-hydroxypropan-2-yl)thiazole-2-sulfonimidamide], the 50% inhibitory concentration (IC50) under setting [2] was in the range of 1000 to 5000 nM. Regarding `CC(C)(O)c1cnc(S(N)(=O)=NC(=O)Nc2c3c(cc4c2C(O)CC4)CCC3)s1` (single isomer, unassigned) [Example 652, (R,R) or (R,S)-N′-((3-hydroxy-1,2,3,5,6,7-hexahydro-s-indacen-4-yl)carbamoyl)-5-(2-hydroxypropan-2-yl)thiazole-2-sulfonimidamide], under setting [2], the half-maximal inhibitory concentration (IC50) was in the range of 1000 to 5000 nM. The same measure, in the same setting: then `CC(C)(O)c1cnc(S(N)(=O)=NC(=O)Nc2c3c(cc4c2C(O)CC4)CCC3)s1` (single isomer, unassigned) [Example 653, (S,S) or (S,R)-N′-((3-hydroxy-1,2,3,5,6,7-hexahydro-s-indacen-4-yl)carbamoyl)-5-(2-hydroxypropan-2-yl)thiazole-2-sulfonimidamide], with 5000 to 30000 nM. As to `CC(C)(O)c1cnc(S(N)(=O)=NC(=O)Nc2c3c(cc4c2C(O)CC4)CCC3)s1` (single isomer, unassigned) [Example 654, (S,R) or (S,S)-N′-((-3-hydroxy-1,2,3,5,6,7-hexahydro-s-indacen-4-yl)carbamoyl)-5-(2-hydroxypropan-2-yl)thiazole-2-sulfonimidamide], under setting [3], the IC50 is more than 30000 nM. Still for that read-out and setting: under `CC(C)(O)c1cnc(S(N)(=O)=NC(=O)Nc2c3c(cc4c2CCC4O)CCC3)s1` (single isomer, unassigned) [Example 655, (S,R) or (S,S)-N′-((1-hydroxy-1,2,3,5,6,7-hexahydro-5-indacen-4-yl)carbamoyl)-5-(2-hydroxypropan-2-yl)thiazole-2-sulfonimidamide] stands more than 30000 nM. In the case of `CC(C)(O)c1cnc(S(N)(=O)=NC(=O)Nc2c3c(cc4c2CCC4O)CCC3)s1` (single isomer, unassigned) [Example 656, (S,S) or (S,R)-N′-((1-hydroxy-1,2,3,5,6,7-hexahydro-5-indacen-4-yl)carbamoyl)-5-(2-hydroxypropan-2-yl)thiazole-2-sulfonimidamide], the IC50 under setting [4] is more than 30000 nM.

As for `CC(C)(O)c1cnc(S(N)(=O)=NC(=O)Nc2c3c(cc4c2CCC4O)CCC3)s1` (single isomer, unassigned) [Example 657, (R,R) or (R,S)-N′-((1-hydroxy-1,2,3,5,6,7-hexahydro-5-indacen-4-yl)carbamoyl)-5-(2-hydroxypropan-2-yl)thiazole-2-sulfonimidamide], the IC50 under setting [2] lay in the range of 1000 to 5000 nM.

On to `CC(C)(O)c1cnc(S(N)(=O)=NC(=O)Nc2c3c(cc4c2CCC4O)CCC3)s1` (single isomer, unassigned) [Example 658, (R,S) or (R,R)-N′-((1-hydroxy-1,2,3,5,6,7-hexahydro-5-indacen-4-yl)carbamoyl)-5-(2-hydroxypropan-2-yl)thiazole-2-sulfonimidamide], for which the IC50 under setting [2] lay in the range of 5000 to 30000 nM. Same read-out and setting: under `CN(C)C(c1ccc(S(N)(=O)=NC(=O)Nc2c3c(cc4c2CCC4)CCC3)cc1)C1CC1` (single isomer, unassigned) [Example 659] stands 5000 to 30000 nM. Same read-out and setting: then `CN(C)C(c1ccc(S(N)(=O)=NC(=O)Nc2c3c(cc4c2CCC4)CCC3)cc1)C1CC1` (single isomer, unassigned) [Example 660], with 200 to 1000 nM.

As to `CN(C)C(c1ccc(S(N)(=O)=NC(=O)Nc2c3c(cc4c2CCC4)CCC3)cc1)C1CC1` (single isomer, unassigned) [Example 661], the IC50 under setting [2] was in the range of 200 to 1000 nM.

As to `CN(C)C(c1ccc(S(N)(=O)=NC(=O)Nc2c3c(cc4c2CCC4)CCC3)cc1)C1CC1` (single isomer, unassigned) [Example 662], the IC50 under setting [2] fell in the range of 200 to 1000 nM. For the molecule `CN(C)C(c1ccc(S(N)(=O)=NC(=O)Nc2c3c(cc4c2CCC4)CCC3)cc1)C(F)(F)F` (single isomer, unassigned) [Example 663], the IC50 under setting [3] is more than 30000 nM. `CN(C)C(c1ccc(S(N)(=O)=NC(=O)Nc2c3c(cc4c2CCC4)CCC3)cc1)C(F)(F)F` (single isomer, unassigned) [Example 664]: the IC50 under setting [1] was in the range of 200 to 1000 nM. For `CN(C)C(c1ccc(S(N)(=O)=NC(=O)Nc2c3c(cc4c2CCC4)CCC3)cc1)C(F)(F)F` (single isomer, unassigned) [Example 665, (S,S) or (R,S)-4-(1-(dimethylamino)-2,2,2-trifluoroethyl)-N′-((1,2,3,5,6,7-hexahydro-s-indacen-4-yl)carbamoyl) benzenesulfonimidamide], under setting [4], the IC50 is more than 30000 nM.

On to `CN(C)C(c1ccc(S(N)(=O)=NC(=O)Nc2c3c(cc4c2CCC4)CCC3)cc1)C(F)(F)F` (single isomer, unassigned) [Example 666, (R,S) or (S,S)-4-(1-(dimethylamino)-2,2,2-trifluoroethyl)-N′-((1,2,3,5,6,7-hexahydro-s-indacen-4-yl)carbamoyl) benzenesulfonimidamide], for which the IC50 under setting [4] was more than 30000 nM. Regarding `CN(C)C(c1ccc(S(N)(=O)=NC(=O)Nc2c3c(cc4c2CCC4)CCC3)cc1)C(F)(F)F` (single isomer, unassigned) [Example 667, (S,R) or (R,R)-4-(1-(dimethylamino)-2,2,2-trifluoroethyl)-N′-((1,2,3,5,6,7-hexahydro-s-indacen-4-yl)carbamoyl) benzenesulfonimidamide], the IC50 under setting [2] was in the range of 200 to 1000 nM. `CN(C)[C@H](c1ccc([S@](N)(=O)=NC(=O)Nc2c3c(cc4c2CCC4)CCC3)cc1)C(F)(F)F` (single isomer, unassigned) [Example 668, (R,R) or (S,R)-4-(1-(dimethylamino)-2,2,2-trifluoroethyl)-N′-((1,2,3,5,6,7-hexahydro-s-indacen-4-yl)carbamoyl) benzenesulfonimidamide]: the IC50 under setting [2] fell in the range of 1000 to 5000 nM.

As to `Cc1c(C2CC2)cc2c(c1NC(=O)N=S(N)(=O)c1sc(C(C)(C)O)cc1F)CCC2` (single isomer, unassigned) [Example 685, (R) or (S)-N′-((6-cyclopropyl-5-methyl-2,3-dihydro-1H-inden-4-yl)carbamoyl)-3-fluoro-5-(2-hydroxypropan-2-yl)thiophene-2-sulfonimidamide], the IC50 under setting [2] was 8 to 40 nM. `Cc1c(C2CC2)cc2c(c1NC(=O)N=S(N)(=O)c1sc(C(C)(C)O)cc1F)CCC2` (single isomer, unassigned) [Example 686, (S) or (R)-N′-((6-cyclopropyl-5-methyl-2,3-dihydro-1H-inden-4-yl)carbamoyl)-3-fluoro-5-(2-hydroxypropan-2-yl)thiophene-2-sulfonimidamide]: the IC50 under setting [2] lay in the range of 1000 to 5000 nM. On the same count and under the same terms, under `CN1CCc2sc(S(N)(=O)=NC(=O)Nc3c4c(cc5c3CCC5)CCC4)cc2C1` (single isomer, unassigned) [Example 687, (R) or (S)-N′-((1,2,3,5,6,7-hexahydro-s-indacen-4-yl)carbamoyl)-5-methyl-4,5,6,7-tetrahydrothieno [3,2-c]pyridine-2-sulfonimidamide] stands 40 to 200 nM; under `CN1CCc2sc(S(N)(=O)=NC(=O)Nc3c4c(cc5c3CCC5)CCC4)cc2C1` (single isomer, unassigned) [Example 688, (S) or (R)-N′-((1,2,3,5,6,7-hexahydro-s-indacen-4-yl)carbamoyl)-5-methyl-4,5,6,7-tetrahydrothieno [3,2-c]pyridine-2-sulfonimidamide], 1000 to 5000 nM; under `CNCc1csc(S(N)(=O)=NC(=O)Nc2c3c(cc4c2CCC4)CCC3)c1` (single isomer, unassigned) [Example 691, (R) or (S)-N′-((1,2,3,5,6,7-hexahydro-s-indacen-4-yl)carbamoyl)-4-((methylamino)methyl)thiophene-2-sulfonimidamide], 40 to 200 nM.

For `CNCc1csc(S(N)(=O)=NC(=O)Nc2c3c(cc4c2CCC4)CCC3)c1` (single isomer, unassigned) [Example 692, (S) or (R)-N′-((1,2,3,5,6,7-hexahydro-s-indacen-4-yl)carbamoyl)-4-((methylamino)methyl)thiophene-2-sulfonimidamide], under setting [2], the IC50 was 1000 to 5000 nM. As to `NS(=O)(=NC(=O)Nc1c2c(cc3c1CCC3)CCC2)c1cc2c(s1)COCC2` (single isomer, unassigned) [Example 693, (R) or (S)-N′-((1,2,3,5,6,7-hexahydro-s-indacen-4-yl)carbamoyl)-4,7-dihydro-5H-thieno[2,3-c]pyran-2-sulfonimidamide], the IC50 under setting [2] was in the range of 200 to 1000 nM. Consider `NS(=O)(=NC(=O)Nc1c2c(cc3c1CCC3)CCC2)c1cc2c(s1)COCC2` (single isomer, unassigned) [Example 694, (S) or (R)-N′-((1,2,3,5,6,7-hexahydro-s-indacen-4-yl)carbamoyl)-4,7-dihydro-5H-thieno[2,3-c]pyran-2-sulfonimidamide], for which the IC50 under setting [2] is 5000 to 30000 nM.
